Data taken from PubChem BioAssay AID330 (DTP/NCI, 2004).
Values joined by “and” are separate entries in the source; they are usually repeats but may differ in a detail not shown here. Equal entries are not always repeated. Inconclusive results and toxic doses are left out.

Test system: P388 leukemia ip, CD2F1 mice, survival T/C
Assay: NCI In Vivo Anticancer Drug Screen. Data for tumor model P388 Leukemia (intraperitoneal) in CD2F1 (CDF1) mice
Conditions: endpoint: median survival time, higher = longer survival
In short: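 Mice carrying the transplanted tumor received test compound or vehicle. Survival was recorded in each group, and the value is the treated-group measurement divided by that of the vehicle-treated control group.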

[1] = dose: 100.0 mg/kg/injection, schedule: Q01DX009 (ip), vehicle: other
[2] = dose: 200.0 mg/kg/injection, schedule: Q01DX009 (ip), vehicle: other
[3] = dose: 6.25 mg/kg/injection, schedule: Q01DX009 (ip), vehicle: saline
[4] = dose: 50.0 mg/kg/injection, schedule: Q01DX009 (ip), vehicle: saline
[5] = dose: 50.0 mg/kg/injection, schedule: Q01DX009 (ip), vehicle: Klucel (hydroxypropylcellulose) (HPC)
[6] = dose: 100.0 mg/kg/injection, schedule: Q01DX009 (ip), vehicle: Klucel (hydroxypropylcellulose) (HPC)
[7] = dose: 12.5 mg/kg/injection, schedule: Q01DX009 (ip), vehicle: Klucel (hydroxypropylcellulose) (HPC)
[8] = dose: 25.0 mg/kg/injection, schedule: Q01DX009 (ip), vehicle: Klucel (hydroxypropylcellulose) (HPC)
[9] = dose: 12.5 mg/kg/injection, schedule: Q01DX005 (ip), vehicle: Klucel (hydroxypropylcellulose) (HPC)
[10] = dose: 25.0 mg/kg/injection, schedule: Q01DX005 (ip), vehicle: Klucel (hydroxypropylcellulose) (HPC)
[11] = dose: 50.0 mg/kg/injection, schedule: Q01DX005 (ip), vehicle: Klucel (hydroxypropylcellulose) (HPC)
[12] = dose: 100.0 mg/kg/injection, schedule: Q01DX005 (ip), vehicle: Klucel (hydroxypropylcellulose) (HPC)
[13] = dose: 50.0 mg/kg/injection, schedule: Q01DX005 (ip), vehicle: saline with Tween-80
[14] = dose: 100.0 mg/kg/injection, schedule: Q01DX005 (ip), vehicle: saline with Tween-80
[15] = dose: 200.0 mg/kg/injection, schedule: Q01DX005 (ip), vehicle: saline with Tween-80
[16] = dose: 100.0 mg/kg/injection, schedule: Q01DX009 (ip), vehicle: saline
[17] = dose: 25.0 mg/kg/injection, schedule: Q01DX009 (ip), vehicle: saline with Tween-80
[18] = dose: 50.0 mg/kg/injection, schedule: Q01DX009 (ip), vehicle: saline with Tween-80
[19] = dose: 100.0 mg/kg/injection, schedule: Q01DX009 (ip), vehicle: saline with Tween-80
[20] = dose: 200.0 mg/kg/injection, schedule: Q01DX009 (ip), vehicle: saline with Tween-80
[21] = dose: 25.0 mg/kg/injection, schedule: Q01DX005 (ip), vehicle: saline with Tween-80
[22] = dose: 60.0 mg/kg/injection, schedule: Q01DX005 (ip), vehicle: saline with Tween-80
[23] = dose: 120.0 mg/kg/injection, schedule: Q01DX005 (ip), vehicle: saline with Tween-80
[24] = dose: 240.0 mg/kg/injection, schedule: Q01DX005 (ip), vehicle: saline with Tween-80

O=C(c1ccc([N+](=O)[O-])cc1)C(Br)C(Br)c1ccncc1 (stereo not drawn)
T/C (dose: 25.0 mg/kg/injection, schedule: Q01DX009 (ip), vehicle: other): 110 % of control | T/C (dose: 50.0 mg/kg/injection, schedule: Q01DX009 (ip), vehicle: other): 104 % of control | T/C [1]: 106 % of control | T/C [2]: 103 % of control

CO[n+]1ccccc1Cc1ccccc1
T/C [3]: 118 % of control | T/C (dose: 12.5 mg/kg/injection, schedule: Q01DX009 (ip), vehicle: saline): 112 % of control and 119 % of control | T/C (dose: 25.0 mg/kg/injection, schedule: Q01DX009 (ip), vehicle: saline): 111 % of control | T/C [4]: 119 % of control

CC(=O)C1C(=O)C(=O)N(c2ccc(C)cc2C)C1=O (stereo not drawn)
T/C [5]: 105 % of control | T/C [6]: 114 % of control | T/C (dose: 200.0 mg/kg/injection, schedule: Q01DX009 (ip), vehicle: Klucel (hydroxypropylcellulose) (HPC)): 110 % of control

Cc1cc[c]([Sb]2[O]C(CO)C(C(O)C(O)C(=O)O)[O]2)cc1 (stereo not drawn)
T/C (dose: 25.0 mg/kg/injection, schedule: Q01DX005 (ip), vehicle: saline): 101 % of control and 104 % of control and 105 % of control

CSc1cnc(N)s1
T/C [7]: 108 % of control | T/C [8]: 115 % of control | T/C [5]: 100 % of control | T/C [6]: 104 % of control

CCCCCn1cc[nH]c1=S
T/C [9]: 101 % of control | T/C [10]: 104 % of control | T/C [11]: 100 % of control and 101 % of control | T/C [12]: 104 % of control | T/C (dose: 200.0 mg/kg/injection, schedule: Q01DX005 (ip), vehicle: Klucel (hydroxypropylcellulose) (HPC)): 110 % of control

CCN(CCO)CC1CCCC2CCCCC21 (stereo not drawn)
T/C (dose: 60.0 mg/kg/injection, schedule: Q01DX005 (ip), vehicle: saline): 92 % of control | T/C (dose: 120.0 mg/kg/injection, schedule: Q01DX005 (ip), vehicle: saline): 98 % of control

C=COC(=O)C(Cc1cccs1)NC(=O)OCc1ccccc1 (stereo not drawn)
T/C [13]: 101 % of control | T/C [14]: 96 % of control | T/C [15]: 95 % of control

N=C(N)c1ccc2[nH]c(/C=C/c3cc4ccc(C(=N)N)cc4o3)cc2c1
T/C (dose: 100.0 mg/kg/injection, schedule: Q04DX003 (ip), vehicle: suspension in saline): 170 % of control

CCn1c(=O)c2n[nH]nc2n(C2CC2)c1=O
T/C [4]: 92 % of control | T/C [16]: 96 % of control | T/C (dose: 200.0 mg/kg/injection, schedule: Q01DX009 (ip), vehicle: saline): 105 % of control

C(=NCCN=CC1CCCC[N-]1)C1CCCC[N-]1.[Cu+2].[O-][Cl+3]([O-])([O-])O (stereo not drawn)
T/C (dose: 12.5 mg/kg/injection, schedule: Q01DX009 (ip), vehicle: saline with Tween-80): 115 % of control | T/C [17]: 98 % of control

CC(C)(O)Cc1ccc(Cl)cc1
T/C [17]: 99 % of control | T/C [18]: 105 % of control | T/C [19]: 108 % of control | T/C [20]: 105 % of control

O=C(O)C(O)C(F)(F)C(F)(F)C(F)(F)F (stereo not drawn)
T/C [13]: 97 % of control | T/C [14]: 94 % of control | T/C [15]: 88 % of control

CC1CC(c2ccccc2)(c2ccccc2)CN1C (stereo not drawn)
T/C (dose: 12.5 mg/kg/injection, schedule: Q01DX005 (ip), vehicle: saline with Tween-80): 105 % of control | T/C [21]: 102 % of control | T/C [13]: 102 % of control and 103 % of control

O=C1OCC/C1=C/OC(=O)c1ccccc1
T/C [22]: 93 % of control | T/C [23]: 99 % of control | T/C [24]: 106 % of control

CCCC1(CC(=O)OCC)SCCN1C(=O)OCC (stereo not drawn)
T/C [21]: 102 % of control | T/C [13]: 102 % of control | T/C [14]: 102 % of control | T/C [15]: 102 % of control

CCN(CC)CCSc1nnc(-c2cc(OC)c(OC)c(OC)c2)o1
T/C (dose: 50.0 mg/kg/injection, schedule: Q04DX003 (ip), vehicle: water): 100 % of control | T/C (dose: 100.0 mg/kg/injection, schedule: Q04DX003 (ip), vehicle: water): 103 % of control

COc1ccc(/C=C2/OC(=O)C(C(C)=O)=C2O)cc1
T/C [5]: 115 % of control | T/C [6]: 100 % of control

COC(=O)COc1cc2c(cc1C(C)c1ccc(OCc3ccccc3)cc1)OCO2 (stereo not drawn)
T/C (dose: 50.0 mg/kg/injection, schedule: Q01DX005 (ip), vehicle: distilled water + Tween-80): 89 % of control | T/C (dose: 100.0 mg/kg/injection, schedule: Q01DX005 (ip), vehicle: distilled water + Tween-80): 99 % of control | T/C (dose: 200.0 mg/kg/injection, schedule: Q01DX005 (ip), vehicle: distilled water + Tween-80): 106 % of control and 88 % of control

Cc1ccc(CNc2ccc(I)cc2)cc1
T/C [1]: 104 % of control | T/C [2]: 95 % of control | T/C (dose: 400.0 mg/kg/injection, schedule: Q01DX009 (ip), vehicle: other): 95 % of control

CC(C)C1=C(O)C2=C(C(=O)C1=O)C1(C)CCCC(C)(C)C1C(O)C2OC=O (stereo not drawn)
T/C [9]: 93 % of control | T/C [10]: 109 % of control | T/C [11]: 107 % of control | T/C [12]: 111 % of control

Nc1nc(-c2ccccc2)c(-c2ccccc2)n1C(=O)NCCCl
T/C (dose: 12.5 mg/kg/injection, schedule: Q04DX002 (ip), vehicle: saline with Tween-80): 114 % of control | T/C (dose: 25.0 mg/kg/injection, schedule: Q04DX002 (ip), vehicle: saline with Tween-80): 113 % of control | T/C (dose: 50.0 mg/kg/injection, schedule: Q04DX002 (ip), vehicle: saline with Tween-80): 113 % of control

COC(=O)C1=C(C(=O)OC)P2(C)(C)SC(=S)N2C1(c1ccccc1)c1ccccc1
T/C [11]: 102 % of control | T/C [12]: 91 % of control

COc1ccc2[nH]c3c(C)c4cc[n+](C)cc4c(C)c3c2c1
T/C (dose: 3.13 mg/kg/injection, schedule: Q01DX009 (ip), vehicle: saline): 153 % of control | T/C [3]: 100 % of control

O=C1c2cc3c(cc2C(=O)c2cc(-c4ccccc4)c(-c4ccccc4)cc21)OCO3
T/C [22]: 92 % of control | T/C [23]: 100 % of control | T/C [24]: 98 % of control and 102 % of control

CC(=O)N(C)c1ccc(NC(=O)Nc2cc(C)ccc2C)cc1
T/C [4]: 91 % of control | T/C [16]: 88 % of control

CC(C)CC1N=C(NN=C(CCl)CCl)SP1(=O)NNc1ncccn1 (stereo not drawn)
T/C (dose: 60.0 mg/kg/injection, schedule: Q01DX005 (ip), vehicle: Klucel (hydroxypropylcellulose) (HPC)): 100 % of control | T/C (dose: 120.0 mg/kg/injection, schedule: Q01DX005 (ip), vehicle: Klucel (hydroxypropylcellulose) (HPC)): 100 % of control | T/C (dose: 240.0 mg/kg/injection, schedule: Q01DX005 (ip), vehicle: Klucel (hydroxypropylcellulose) (HPC)): 113 % of control

COC1=CC(=O)C(=O)C(C(C)(C)C)=C1
T/C (dose: 15.0 mg/kg/injection, schedule: Q01DX005 (ip), vehicle: Klucel (hydroxypropylcellulose) (HPC)): 104 % of control | T/C (dose: 30.0 mg/kg/injection, schedule: Q01DX005 (ip), vehicle: Klucel (hydroxypropylcellulose) (HPC)): 86 % of control

COc1cc(NCCCC2CCCCN2)c2ncccc2c1OC (stereo not drawn)
T/C (dose: 6.25 mg/kg/injection, schedule: Q01DX005 (ip), vehicle: saline): 103 % of control | T/C (dose: 12.5 mg/kg/injection, schedule: Q01DX005 (ip), vehicle: saline): 101 % of control

O=C(O)C1CCC(CNCC2C(=O)OC3CCC4C(O)CC(O)C4CC32)CC1 (stereo not drawn)
T/C (dose: 100.0 mg/kg/injection, schedule: Q04DX002 (ip), vehicle: saline): 97 % of control | T/C (dose: 200.0 mg/kg/injection, schedule: Q04DX002 (ip), vehicle: saline): 100 % of control | T/C (dose: 400.0 mg/kg/injection, schedule: Q04DX002 (ip), vehicle: saline): 105 % of control

CN1N=Nc2ccccc2C1O (stereo not drawn)
T/C [10]: 92 % of control | T/C [11]: 95 % of control | T/C [12]: 116 % of control

CC(=O)Nc1ccc(C(=O)CCl)c(Cl)c1
T/C [7]: 104 % of control | T/C [8]: 107 % of control

CC(=NCCN=C(C)c1ccc(Br)cc1)c1ccc(Br)cc1
T/C [18]: 91 % of control | T/C [19]: 92 % of control | T/C [20]: 91 % of control
